Laboratory results: patent publication US10202339B2, “Therapeutic compounds and compositions” (AGIOS PHARMACEUTICALS, INC., priority 2012, dated 2019)

Target: IDH2 R140Q (Homo sapiens (Human), UniProt P48735, R140Q)
Test: IDH2 R140Q enzymatic cofactor depletion assay (diaphorase/resazurin)
Type: biochemical
Settings: IDH2 R140Q enzyme, one hour preincubation with compound, one hour reaction; read-out: Enz R140Q
Outline: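 Enzyme preincubated with compound 1 h at room temperature, then reaction started with 50 μM NADPH and 6.3 mM α-KG and run 1 h at room temperature. Remaining NADPH measured by diaphorase (36 μg/ml)/resazurin (60 μM) stop mix, fluorescence read at Ex544/Em590 after 1 min.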

IDH2 R140Q, sequence (P48735 40-452 R140Q): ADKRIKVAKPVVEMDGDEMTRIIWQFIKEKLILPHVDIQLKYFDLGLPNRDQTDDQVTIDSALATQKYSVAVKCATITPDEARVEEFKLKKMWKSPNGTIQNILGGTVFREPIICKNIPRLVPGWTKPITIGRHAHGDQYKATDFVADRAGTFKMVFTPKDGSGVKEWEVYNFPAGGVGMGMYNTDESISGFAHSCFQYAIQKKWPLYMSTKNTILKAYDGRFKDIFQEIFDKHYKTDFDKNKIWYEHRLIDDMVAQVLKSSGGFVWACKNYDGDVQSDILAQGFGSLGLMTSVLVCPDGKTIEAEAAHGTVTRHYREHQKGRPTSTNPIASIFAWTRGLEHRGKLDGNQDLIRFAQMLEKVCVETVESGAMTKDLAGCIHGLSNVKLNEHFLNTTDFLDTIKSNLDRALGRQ

Row | Compound | IC50 [nM]
1 | O=C(Nc1ccc(F)c(C(F)(F)F)c1)Nc1cc(S(=O)(=O)NCC(F)(F)F)ccc1C1CCCCO1 (stereo not shown) [Compound 167, 3-(3-(4-fluoro-3-(trifluoromethyl)phenyl)ureido)-4-(tetrahydro-2H-pyran-2-yl)-N-(2,2,2-trifluoroethyl)benzenesulfonamide] | 100 to 1000
2 | O=C(Nc1cccc(Cl)c1)Nc1cc(S(=O)(=O)NCC(F)(F)F)ccc1C1CCCCO1 (stereo not shown) [Compound 168, 3-(3-(3-chlorophenyl)ureido)-4-(tetrahydro-2H-pyran-2-yl)-N-(2,2,2-trifluoroethyl)benzenesulfonamide] | 100 to 1000
3 | O=C(Nc1ncc(Cl)s1)Nc1cc(S(=O)(=O)NCC(F)(F)F)ccc1C1CCCCO1 (stereo not shown) [Compound 169, 3-(3-(5-chlorothiazol-2-yl)ureido)-4-(tetrahydro-2H-pyran-2-yl)-N-(2,2,2-trifluoroethyl)benzene sulfonamide] | 100 to 1000
4 | O=C(Nc1cccc(C(F)(F)F)c1)Nc1cc(S(=O)(=O)Nc2ccccc2)ccc1C1CCCCO1 (stereo not shown) [Compound 170, N-phenyl-4-(tetrahydro-2H-pyran-2-yl)-3-(3-(3-(trifluoromethyl)phenyl)ureido)benzenesulfonamide] | 100 to 1000
5 | O=C(Nc1ncc(Cl)s1)Nc1cc(S(=O)(=O)NCC(F)(F)F)ccc1C1CCOC1 (stereo not shown) [Compound 172, 3-(3-(5-chlorothiazol-2-yl)ureido)-4-(tetrahydrofuran-3-yl)-N-(2,2,2-trifluoroethyl)benzene sulfonamide] | 1000 to 10000
6 | O=C(Nc1cccc(C(F)(F)F)c1)Nc1cc(S(=O)(=O)NCC(F)(F)F)ccc1C1CCCO1 (stereo not shown) [Compound 173, 4-(tetrahydrofuran-2-yl)-N-(2,2,2-trifluoroethyl)-3-(3-(3-(trifluoromethyl)phenyl)ureido)benzene sulfonamide] | 100 to 1000
7 | O=C(Nc1cc(C(F)(F)F)ccn1)Nc1cc(S(=O)(=O)NCC(F)(F)F)ccc1C1CCCO1 (stereo not shown) [Compound 174, 4-(tetrahydrofuran-2-yl)-N-(2,2,2-trifluoroethyl)-3-(3-(4-(trifluoromethyl)pyridin-2-yl)ureido)benzene sulfonamide] | 1000 to 10000
8 | O=C(Nc1cccc(C(F)(F)F)c1)Nc1cc(S(=O)(=O)NCC(F)(F)F)ccc1OCC1CC1 [Compound 175, 4-(cyclopropylmethoxy)-N-(2,2,2-trifluoroethyl)-3-(3-(3-(trifluoromethyl)phenyl)ureido)benzenesulfonamide] | 100 to 1000
9 | O=C(Nc1cccc(C(F)(F)F)c1)Nc1cc(S(=O)(=O)NCC(F)(F)F)ccc1OCC1CCCO1 (stereo not shown) [Compound 176, 4-((tetrahydrofuran-2-yl)methoxy)-N-(2,2,2-trifluoroethyl)-3-(3-(3-(trifluoromethyl)phenyl)ureido)benzenesulfonamide] | 100 to 1000
10 | CCOc1ccc(S(=O)(=O)NCC(F)(F)F)cc1NC(=O)Nc1cccc(C(F)(F)F)c1 [Compound 177, 4-ethoxy-N-(2,2,2-trifluoroethyl)-3-(3-(3-(trifluoromethyl)phenyl)ureido)benzenesulfonamide] | < 100
11 | O=C(Nc1cccc(C(F)(F)F)c1)Nc1cc(S(=O)(=O)NCC(F)(F)F)ccc1OC1CCOCC1 [Compound 178, 4-((tetrahydro-2H-pyran-4-yl)oxy)-N-(2,2,2-trifluoroethyl)-3-(3-(3-(trifluoromethyl)phenyl)ureido)benzenesulfonamide] | 100 to 1000
12 | N#CC1(NS(=O)(=O)c2ccc(OCC3CC3)c(NC(=O)Nc3cccc(C(F)(F)F)c3)c2)CC1 [Compound 179, N-(1-cyanocyclopropyl)-4-(cyclopropylmethoxy)-3-(3-(3-(trifluoromethyl)phenyl)ureido)benzene sulfonamide] | 100 to 1000
13 | CCOc1ccc(S(=O)(=O)NC2COC2)cc1NC(=O)Nc1cccc(C(F)(F)F)c1 [Compound 180, 4-ethoxy-N-(oxetan-3-yl)-3-(3-(3-(trifluoromethyl)phenyl)ureido)benzenesulfonamide] | 100 to 1000
14 | CCOc1ccc(S(=O)(=O)NC2(C#N)CC2)cc1NC(=O)Nc1cccc(C(F)(F)F)c1 [Compound 181, N-(1-cyanocyclopropyl)-4-ethoxy-3-(3-(3-(trifluoromethyl)phenyl)ureido)benzenesulfonamide] | 100 to 1000
15 | O=C(Nc1cccc(C(F)(F)F)c1)Nc1cc(S(=O)(=O)NC2COC2)ccc1OCC1CC1 [Compound 183, 4-(cyclopropylmethoxy)-N-(oxetan-3-yl)-3-(3-(3-(trifluoromethyl)phenyl)ureido)benzenesulfonamide] | 100 to 1000
16 | O=C(Nc1cccc(C(F)(F)F)c1)Nc1cc(S(=O)(=O)NCC(F)(F)F)ccc1OCC1CCOC1 (stereo not shown) [Compound 184, 4-((tetrahydrofuran-3-yl)methoxy)-N-(2,2,2-trifluoroethyl)-3-(3-(3-(trifluoromethyl)phenyl)ureido)benzenesulfonamide] | 100 to 1000
17 | CC(C)Oc1ccc(S(=O)(=O)NCC(F)(F)F)cc1NC(=O)Nc1cccc(C(F)(F)F)c1 [Compound 185, 4-isopropoxy-N-(2,2,2-trifluoroethyl)-3-(3-(3-(trifluoromethyl)phenyl)ureido)benzenesulfonamide] | 100 to 1000

Row | Compound | IC50 [nM]
18 | O=C(Nc1cccc(C(F)(F)F)c1)Nc1cc(S(=O)(=O)NCC(F)(F)F)ccc1Oc1cccnc1 [Compound 186, 4-(pyridin-3-yloxy)-N-(2,2,2-trifluoroethyl)-3-(3-(3-(trifluoromethyl)phenyl)ureido)benzenesulfonamide] | 100 to 1000
19 | O=C(Nc1ncc(Cl)s1)Nc1cc(S(=O)(=O)NCC(F)(F)F)ccc1OCC1CC1 [Compound 187, 3-(3-(5-chlorothiazol-2-yl)ureido)-4-(cyclopropylmethoxy)-N-(2,2,2-trifluoroethyl)benzenesulfonamide] | 100 to 1000
20 | O=C(Nc1ccc(F)cc1F)Nc1cc(S(=O)(=O)NCC(F)(F)F)ccc1OCC1CC1 [Compound 188, 4-(cyclopropylmethoxy)-3-(3-(2,4-difluorophenyl)ureido)-N-(2,2,2-trifluoroethyl)benzenesulfonamide] | 100 to 1000
21 | O=C(Nc1cc(C(F)(F)F)ccn1)Nc1cc(S(=O)(=O)NCC(F)(F)F)ccc1OCC1CC1 [Compound 189, 4-(cyclopropylmethoxy)-N-(2,2,2-trifluoroethyl)-3-(3-(4-(trifluoromethyl)pyridin-2-yl)ureido)benzene sulfonamide] | 100 to 1000
22 | CCOc1ccc(S(=O)(=O)NCC(F)(F)F)cc1NC(=O)Nc1cc(C(F)(F)F)ccn1 [Compound 190, 4-ethoxy-N-(2,2,2-trifluoroethyl)-3-(3-(4-(trifluoromethyl)pyridin-2-yl)ureido)benzenesulfonamide] | 100 to 1000
23 | CCOc1ccc(S(=O)(=O)NCC(F)(F)F)cc1NC(=O)Nc1ncc(Cl)s1 [Compound 191, 3-(3-(5-chlorothiazol-2-yl)ureido)-4-ethoxy-N-(2,2,2-trifluoroethyl)benzenesulfonamide] | 100 to 1000
24 | O=C(Nc1cccc(C(F)(F)F)c1)Nc1cc(S(=O)(=O)Nc2ccccc2)ccc1Oc1ccccc1 [Compound 192, 4-phenoxy-N-phenyl-3-(3-(3-(trifluoromethyl)phenyl)ureido)benzenesulfonamide] | 100 to 1000
25 | O=C(Nc1cccc(C(F)(F)F)c1)Nc1cc(S(=O)(=O)NC2CC2)ccc1OCc1ccccc1 [Compound 193] | 1000 to 10000
26 | CC[S+]([O-])c1ccc(S(=O)(=O)NCC(F)(F)F)cc1NC(=O)Nc1cccc(C(F)(F)F)c1 (stereo not shown) [Compound 195, 4-(ethylsulfinyl)-N-(2,2,2-trifluoroethyl)-3-(3-(3-(trifluoromethyl)phenyl)ureido)benzenesulfonamide] | 100 to 1000
27 | CCS(=O)(=O)c1ccc(S(=O)(=O)NCC(F)(F)F)cc1NC(=O)Nc1cccc(C(F)(F)F)c1 [Compound 196, 4-(ethylsulfonyl)-N-(2,2,2-trifluoroethyl)-3-(3-(3-(trifluoromethyl)phenyl)ureido)benzenesulfonamide] | < 100
28 | O=C(Nc1cccc(C(F)(F)F)c1)Nc1cc(S(=O)(=O)NCC(F)(F)F)cnc1OCC1CC1 [Compound 197, 6-(cyclopropylmethoxy)-N-(2,2,2-trifluoroethyl)-5-(3-(3-(trifluoromethyl)phenyl)ureido)pyridine-3-sulfonamide] | < 100
29 | O=C(Nc1cccc(C(F)(F)F)c1)Nc1cc(S(=O)(=O)NC2COC2)cnc1OCC1CC1 [Compound 198, 6-(cyclopropylmethoxy)-N-(oxetan-3-yl)-5-(3-(3-(trifluoromethyl)phenyl)ureido)pyridine-3-sulfonamide] | 100 to 1000
30 | CCOc1ncc(S(=O)(=O)NC2COC2)cc1NC(=O)Nc1cccc(C(F)(F)F)c1 [Compound 199, 6-ethoxy-N-(oxetan-3-yl)-5-(3-(3-(trifluoromethyl)phenyl)ureido)pyridine-3-sulfonamide] | 100 to 1000
31 | N#CC1(NS(=O)(=O)c2cnc(OCC3CC3)c(NC(=O)Nc3cccc(C(F)(F)F)c3)c2)CC1 [Compound 200, N-(1-cyanocyclopropyl)-6-(cyclopropylmethoxy)-5-(3-(3-(trifluoromethyl)phenyl)ureido)pyridine-3-sulfonamide] | 1000 to 10000
32 | O=C(Nc1cccc(C(F)(F)F)c1)Nc1cc(S(=O)(=O)NCC(F)(F)F)cnc1OCC1CCOC1 (stereo not shown) [Compound 201, 6-((tetrahydrofuran-3-yl)methoxy)-N-(2,2,2-trifluoroethyl)-5-(3-(3-(trifluoromethyl)phenyl)ureido)pyridine-3-sulfonamide] | 100 to 1000
33 | CCOc1ncc(S(=O)(=O)NCC(F)(F)F)cc1NC(=O)Nc1cc(C(F)(F)F)ccn1 [Compound 202, 6-ethoxy-N-(2,2,2-trifluoroethyl)-5-(3-(4-(trifluoromethyl)pyridine-2-yl)ureido)pyridine-3-sulfonamide] | 100 to 1000
34 | O=C(Nc1cccc(C(F)(F)F)c1)Nc1cc(S(=O)(=O)NCC(F)(F)F)cnc1N1CCOCC1 [Compound 203, 6-morpholino-N-(2,2,2-trifluoroethyl)-5-(3-(3-(trifluoromethyl)phenyl)ureido)pyridine-3-sulfonamide] | 100 to 1000
